What was measured:
FGFR1 = target: T1, FGFR1 (Homo sapiens, UniProt P11362); assay: Kinase inhibition assay (ELISA); type: biochemical
T1 construct: purchased Eurofins (Fremont, United States)
Experimental: (§1) Active FGFR1–4, VEGFR1, KDR, VEGFR3, PDGFRα and PDGFRβ proteins were purchased from Eurofins (Fremont, United States), and kinase activity was assessed using ELISA, as previously reported. […]. Increasing concentrations of ATP were diluted for the kinase reaction in the ATP competition assay. CSF-1R kinase activity was analyzed using the Z’-LYTE™ Kinase Assay Kit (Thermo Fisher, United States). The assay formats are described in the SelectScreen Kinase Profiling Service Zlyte protocol. IC50 values were calculated by dose-response curve fitting using Prism (Graph Pad).

PDGFRα = target: T2, PDGFRα (Homo sapiens, UniProt P16234); assay: Kinase inhibition assay (ELISA); type: biochemical
T2 construct: purchased Eurofins (Fremont, United States)
Experimental: as §1

PDGFRβ = target: T3, PDGFRβ (Homo sapiens, UniProt P09619); assay: Kinase inhibition assay (ELISA); type: biochemical
T3 construct: purchased Eurofins (Fremont, United States)
Experimental: as §1

VEGFR1 = target: T4, VEGFR1 (Homo sapiens, UniProt P17948); assay: Kinase inhibition assay (ELISA); type: biochemical
T4 construct: purchased Eurofins (Fremont, United States)
Experimental: as §1

VEGFR3 = target: T5, VEGFR3 (Homo sapiens, UniProt P35916); assay: Kinase inhibition assay (ELISA); type: biochemical
T5 construct: purchased Eurofins (Fremont, United States)
Experimental: as §1

FGFR2 = target: T6, FGFR2 (Homo sapiens, UniProt P21802); assay: Kinase inhibition assay (ELISA); type: biochemical; settings: mean ± SD
T6 construct: purchased Eurofins (Fremont, United States)

ACK1(h) = target: T7, ACK1(h) (Homo sapiens, UniProt Q07912); assay: Eurofins kinase panel; type: biochemical; settings: read-out: Inhibition rate (%)
T7 construct: purchased Eurofins (KinaseProfiler)

CHK2(R145W)(h) = target: T8, CHK2(R145W)(h) (Homo sapiens, UniProt O96017, R145W); assay: Eurofins kinase panel; type: biochemical; settings: read-out: Inhibition rate (%)
T8 construct: purchased Eurofins (KinaseProfiler)

ErbB4(h) = target: T9, ErbB4(h) (Homo sapiens, UniProt Q15303); assay: Eurofins kinase panel; type: biochemical; settings: read-out: Inhibition rate (%)
T9 construct: purchased Eurofins (KinaseProfiler)

IRR(h) = target: T10, IRR(h) (Homo sapiens, UniProt P14616); assay: Eurofins kinase panel; type: biochemical; settings: read-out: Inhibition rate (%)
T10 construct: purchased Eurofins (KinaseProfiler)
T10 sequence (P14616 27-1297): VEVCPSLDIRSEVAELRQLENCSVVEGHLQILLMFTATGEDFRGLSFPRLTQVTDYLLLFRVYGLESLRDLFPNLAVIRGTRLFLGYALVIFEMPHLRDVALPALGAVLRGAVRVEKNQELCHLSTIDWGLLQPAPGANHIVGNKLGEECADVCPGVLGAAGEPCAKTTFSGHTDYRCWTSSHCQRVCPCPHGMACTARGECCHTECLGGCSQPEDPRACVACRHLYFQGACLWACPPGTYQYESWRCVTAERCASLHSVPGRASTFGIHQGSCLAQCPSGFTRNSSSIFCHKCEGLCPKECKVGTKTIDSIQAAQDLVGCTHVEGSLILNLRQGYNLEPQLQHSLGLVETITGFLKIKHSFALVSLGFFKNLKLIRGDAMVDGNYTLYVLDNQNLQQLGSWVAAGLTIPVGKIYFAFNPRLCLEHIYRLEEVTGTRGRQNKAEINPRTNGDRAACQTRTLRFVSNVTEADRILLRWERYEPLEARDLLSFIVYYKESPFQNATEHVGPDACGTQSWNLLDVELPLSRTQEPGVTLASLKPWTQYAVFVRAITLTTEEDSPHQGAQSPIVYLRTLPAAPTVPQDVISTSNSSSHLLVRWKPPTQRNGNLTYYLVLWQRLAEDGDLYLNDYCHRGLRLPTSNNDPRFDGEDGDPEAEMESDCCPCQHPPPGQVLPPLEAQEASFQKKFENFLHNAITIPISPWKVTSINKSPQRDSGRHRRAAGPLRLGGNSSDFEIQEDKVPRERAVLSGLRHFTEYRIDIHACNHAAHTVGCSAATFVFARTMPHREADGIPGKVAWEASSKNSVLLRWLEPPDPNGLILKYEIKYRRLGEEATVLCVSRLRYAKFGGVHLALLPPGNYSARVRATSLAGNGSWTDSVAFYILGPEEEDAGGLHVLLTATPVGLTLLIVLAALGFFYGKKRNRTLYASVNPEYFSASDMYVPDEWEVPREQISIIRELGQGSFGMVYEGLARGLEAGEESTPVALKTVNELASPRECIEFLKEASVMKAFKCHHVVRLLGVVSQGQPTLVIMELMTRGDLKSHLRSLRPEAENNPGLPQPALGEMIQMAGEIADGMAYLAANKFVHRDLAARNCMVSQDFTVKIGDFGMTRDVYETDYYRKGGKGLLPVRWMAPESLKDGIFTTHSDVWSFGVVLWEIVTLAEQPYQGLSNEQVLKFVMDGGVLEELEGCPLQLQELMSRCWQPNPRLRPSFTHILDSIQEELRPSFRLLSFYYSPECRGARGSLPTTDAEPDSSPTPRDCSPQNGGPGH

PKCι(h) = target: T11, PKCι(h) (Homo sapiens, UniProt P41743); assay: Eurofins kinase panel; type: biochemical; settings: read-out: Inhibition rate (%)
T11 construct: purchased Eurofins (KinaseProfiler)
T11 sequence (P41743 1-596): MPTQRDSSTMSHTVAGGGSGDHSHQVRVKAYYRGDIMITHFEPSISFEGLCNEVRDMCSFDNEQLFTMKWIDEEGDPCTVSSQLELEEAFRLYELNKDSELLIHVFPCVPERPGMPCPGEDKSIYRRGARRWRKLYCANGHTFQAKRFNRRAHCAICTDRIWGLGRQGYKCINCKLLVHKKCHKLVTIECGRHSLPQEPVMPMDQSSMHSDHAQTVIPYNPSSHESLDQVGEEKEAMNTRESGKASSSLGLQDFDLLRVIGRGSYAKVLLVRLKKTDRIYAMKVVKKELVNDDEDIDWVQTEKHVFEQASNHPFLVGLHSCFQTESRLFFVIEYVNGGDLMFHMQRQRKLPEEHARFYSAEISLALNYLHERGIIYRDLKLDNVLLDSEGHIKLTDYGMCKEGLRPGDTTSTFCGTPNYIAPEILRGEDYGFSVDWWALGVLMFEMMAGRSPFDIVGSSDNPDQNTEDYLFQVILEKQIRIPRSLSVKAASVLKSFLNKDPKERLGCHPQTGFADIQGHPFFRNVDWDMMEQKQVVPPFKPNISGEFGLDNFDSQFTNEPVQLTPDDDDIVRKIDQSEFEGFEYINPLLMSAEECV

Tie2 (h) = target: T12, Tie2 (h) (Homo sapiens, UniProt Q02763); assay: Eurofins kinase panel; type: biochemical; settings: read-out: Inhibition rate (%)
T12 construct: purchased Eurofins (KinaseProfiler)
T12 sequence (Q02763 23-1124): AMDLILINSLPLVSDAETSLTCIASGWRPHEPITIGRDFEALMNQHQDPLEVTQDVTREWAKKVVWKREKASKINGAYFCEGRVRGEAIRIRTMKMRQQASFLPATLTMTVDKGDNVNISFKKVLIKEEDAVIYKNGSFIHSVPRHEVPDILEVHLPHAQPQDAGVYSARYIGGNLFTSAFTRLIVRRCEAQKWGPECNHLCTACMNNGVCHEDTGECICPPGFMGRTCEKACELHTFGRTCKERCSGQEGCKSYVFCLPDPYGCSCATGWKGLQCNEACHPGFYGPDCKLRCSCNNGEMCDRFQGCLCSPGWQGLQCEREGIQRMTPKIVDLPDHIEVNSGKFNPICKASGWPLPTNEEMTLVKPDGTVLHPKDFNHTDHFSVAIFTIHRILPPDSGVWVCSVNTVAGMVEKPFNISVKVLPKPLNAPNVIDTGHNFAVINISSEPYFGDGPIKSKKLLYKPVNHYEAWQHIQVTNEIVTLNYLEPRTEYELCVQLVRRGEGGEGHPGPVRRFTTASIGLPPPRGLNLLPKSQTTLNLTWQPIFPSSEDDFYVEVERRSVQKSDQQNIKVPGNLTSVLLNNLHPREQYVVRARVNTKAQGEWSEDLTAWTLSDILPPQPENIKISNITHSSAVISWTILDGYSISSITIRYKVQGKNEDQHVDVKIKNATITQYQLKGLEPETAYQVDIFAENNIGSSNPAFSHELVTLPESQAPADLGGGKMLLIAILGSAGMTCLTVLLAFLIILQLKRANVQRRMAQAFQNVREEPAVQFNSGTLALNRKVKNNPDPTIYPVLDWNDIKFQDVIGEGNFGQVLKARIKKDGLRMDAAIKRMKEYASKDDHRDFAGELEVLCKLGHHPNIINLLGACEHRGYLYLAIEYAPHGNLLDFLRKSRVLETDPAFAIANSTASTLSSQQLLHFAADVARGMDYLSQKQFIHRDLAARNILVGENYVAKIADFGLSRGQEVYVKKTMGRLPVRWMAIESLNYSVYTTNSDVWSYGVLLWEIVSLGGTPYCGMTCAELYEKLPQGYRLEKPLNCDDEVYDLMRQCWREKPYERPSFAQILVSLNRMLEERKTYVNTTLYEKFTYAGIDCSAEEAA

WNK2(h) = target: T13, WNK2(h) (Homo sapiens, UniProt Q9Y3S1); assay: Eurofins kinase panel; type: biochemical; settings: read-out: Inhibition rate (%)
T13 construct: purchased Eurofins (KinaseProfiler)
T13 sequence (Q9Y3S1 whole entry): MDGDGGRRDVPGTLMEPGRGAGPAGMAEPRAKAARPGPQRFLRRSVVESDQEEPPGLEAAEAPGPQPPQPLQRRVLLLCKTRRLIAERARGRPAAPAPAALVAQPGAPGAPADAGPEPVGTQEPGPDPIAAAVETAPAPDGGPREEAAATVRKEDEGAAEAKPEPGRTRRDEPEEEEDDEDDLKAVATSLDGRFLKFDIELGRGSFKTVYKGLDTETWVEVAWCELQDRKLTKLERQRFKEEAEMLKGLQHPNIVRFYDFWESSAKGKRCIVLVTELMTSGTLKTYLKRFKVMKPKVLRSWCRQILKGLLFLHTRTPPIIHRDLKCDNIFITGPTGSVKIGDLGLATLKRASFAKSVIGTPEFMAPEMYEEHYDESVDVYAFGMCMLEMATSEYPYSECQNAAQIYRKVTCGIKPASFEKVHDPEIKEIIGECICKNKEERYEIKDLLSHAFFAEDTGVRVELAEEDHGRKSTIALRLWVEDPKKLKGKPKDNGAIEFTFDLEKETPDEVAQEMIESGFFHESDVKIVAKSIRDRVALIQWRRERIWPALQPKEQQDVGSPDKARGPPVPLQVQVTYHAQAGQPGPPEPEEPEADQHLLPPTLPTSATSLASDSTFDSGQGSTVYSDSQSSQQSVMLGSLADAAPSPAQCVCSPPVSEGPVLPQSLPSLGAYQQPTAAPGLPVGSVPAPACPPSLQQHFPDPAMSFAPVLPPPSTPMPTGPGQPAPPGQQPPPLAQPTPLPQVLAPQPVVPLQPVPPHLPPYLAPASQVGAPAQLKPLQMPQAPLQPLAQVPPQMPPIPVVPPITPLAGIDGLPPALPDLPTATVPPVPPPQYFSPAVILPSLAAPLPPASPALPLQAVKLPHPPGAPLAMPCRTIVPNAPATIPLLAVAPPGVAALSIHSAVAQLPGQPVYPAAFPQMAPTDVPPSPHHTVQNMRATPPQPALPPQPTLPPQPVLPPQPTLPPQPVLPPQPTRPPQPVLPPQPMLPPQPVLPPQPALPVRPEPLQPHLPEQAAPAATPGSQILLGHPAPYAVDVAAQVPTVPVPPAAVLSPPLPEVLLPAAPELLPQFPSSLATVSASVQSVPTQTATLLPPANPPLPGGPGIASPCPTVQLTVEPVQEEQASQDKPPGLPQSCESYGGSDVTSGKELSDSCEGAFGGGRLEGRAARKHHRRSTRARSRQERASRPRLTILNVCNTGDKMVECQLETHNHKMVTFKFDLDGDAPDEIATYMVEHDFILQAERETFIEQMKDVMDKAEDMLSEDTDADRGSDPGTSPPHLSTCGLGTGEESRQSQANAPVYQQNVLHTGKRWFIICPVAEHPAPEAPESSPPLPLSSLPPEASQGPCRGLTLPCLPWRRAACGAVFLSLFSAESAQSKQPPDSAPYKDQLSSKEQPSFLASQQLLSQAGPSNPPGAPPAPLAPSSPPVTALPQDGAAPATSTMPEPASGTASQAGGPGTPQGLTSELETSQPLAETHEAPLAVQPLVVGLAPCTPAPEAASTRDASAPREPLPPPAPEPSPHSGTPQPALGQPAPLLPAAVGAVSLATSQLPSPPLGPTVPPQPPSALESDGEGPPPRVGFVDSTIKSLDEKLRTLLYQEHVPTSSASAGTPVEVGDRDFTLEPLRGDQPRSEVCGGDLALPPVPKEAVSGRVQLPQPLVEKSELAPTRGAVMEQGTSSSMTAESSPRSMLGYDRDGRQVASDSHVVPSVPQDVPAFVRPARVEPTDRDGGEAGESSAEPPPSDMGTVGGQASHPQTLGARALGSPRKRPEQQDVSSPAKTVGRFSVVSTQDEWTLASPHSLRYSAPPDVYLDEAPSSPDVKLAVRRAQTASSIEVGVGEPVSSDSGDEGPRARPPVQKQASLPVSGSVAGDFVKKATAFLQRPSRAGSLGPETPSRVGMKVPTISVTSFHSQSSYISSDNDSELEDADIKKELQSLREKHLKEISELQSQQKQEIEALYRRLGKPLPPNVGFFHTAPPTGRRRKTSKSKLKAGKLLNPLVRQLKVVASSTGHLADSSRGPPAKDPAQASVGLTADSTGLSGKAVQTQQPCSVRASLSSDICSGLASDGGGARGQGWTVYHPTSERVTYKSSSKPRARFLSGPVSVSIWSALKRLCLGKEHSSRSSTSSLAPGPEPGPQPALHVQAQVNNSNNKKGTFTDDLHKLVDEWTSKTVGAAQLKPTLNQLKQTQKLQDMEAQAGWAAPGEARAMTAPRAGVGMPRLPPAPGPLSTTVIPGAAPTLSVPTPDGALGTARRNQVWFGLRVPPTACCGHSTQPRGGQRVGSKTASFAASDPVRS

FGFR4 = target: T14, FGFR4 (Homo sapiens, UniProt P22455); assay: Kinase inhibition assay (ELISA); type: biochemical; settings: mean ± SD
T14 construct: purchased Eurofins (Fremont, United States)

CSF-1R = CSF-1R (Homo sapiens, UniProt P07333); assay: Z'-LYTE kinase assay; type: biochemical; settings: mean ± SD
[1] = system: 20 additional tumor cell lines with low expression or activation of FGFR and CSF-1R; assay: Cell proliferation assay, non-dependent panel; type: cell-based; settings: 20 cell lines
Experimental: The cancer cell lines indicated in Figure 3 were seeded in 96-well plates at a low density in growth medium. The next day, appropriate controls or the designated concentrations of the compounds were added to each well, and the cells were incubated for 72 h. HUVECs (passage 3) were seeded in 96-well plates in growth medium overnight and transferred to serum-free medium for 24 h. The following day, appropriate controls or the designated concentrations of the compounds were added to each well, and 100 ng/mL growth factor (bFGF or VEGF) was added to the indicated wells. The cells were incubated for 48 h. Finally, cell proliferation was determined using a sulforhodamine B (SRB) assay or a cell counting kit-8 (CCK-8) assay. […] IC50 values for proliferation curves were calculated using a 4-parameter logistic nonlinear regression model with SoftMax Pro Software (Molecular Devices, San Jose, USA).

BMDM (CSF-2) = assay: Macrophage survival (CCK-8); type: cell-based, murine; settings: Mus musculus, BMDM, 168 h; 7 days
Experimental: Murine bone marrow-derived macrophages (BMDMs) and PBMCs were used for cell viability studies. BMDMs were harvested by flushing the tibias and femurs of 6- to 8-week-old C57BL/6 mice and depleting red blood cells (RBCs) by RBC lysis (Biogems). For BMDM survival, the cells were cultured for 7 days in RPMI 1640 containing 10% fetal bovine serum (FBS), 100 U/mL penicillin, 100 μg/mL streptomycin and 100 ng/mL mouse CSF-1 (or CSF-2) with or without the tested compounds. PBMCs were obtained from HemaCare and cultured for 7 days in RPMI 1640 containing 10% fetal bovine serum (FBS), 100 U/mL penicillin, 100 μg/mL streptomycin and 100 ng/mL human CSF-1 (or CSF-2) with or without the tested compounds. Cell viability was measured using the CCK-8 assay. For IL-4/IL-13-induced macrophage survival analysis, viable cells were counted by trypan blue exclusion.

COc1cc(OC)c(Cl)c(-c2ccc3c(NC(=O)c4ccc(N5CCNC(C)(C)C5)cc4)n[nH]c3n2)c1Cl [3D185]
mode of inhibition (FGFR1; ATP competition assay): ATP-competitive inhibitor
selectivity for FGFR over PDGFRα, PDGFRβ, VEGFR1 and VEGFR3 (FGFR1; kinase assays): > 2000 fold
IC50 (FGFR1; mean ± SD): 0.5 nM
IC50 (PDGFRα): > 1000 nM
IC50 (PDGFRβ): > 1000 nM
IC50 (VEGFR1): > 1000 nM
IC50 (VEGFR3): > 1000 nM
IC50 (FGFR2): 1.3 nM
inhibition at 0.01 µM (ACK1(h); 10 nM): 1%
inhibition at 0.1 µM (ACK1(h); 100 nM): 37%
inhibition at 1 µM (ACK1(h); 1000 nM): 90%
inhibition at 0.01 µM (CHK2(R145W)(h); 10 nM): -17%
inhibition at 0.1 µM (CHK2(R145W)(h); 100 nM): -15%
inhibition at 1 µM (CHK2(R145W)(h); 1000 nM): -4%
inhibition at 0.01 µM (ErbB4(h); 10 nM): -2%
inhibition at 0.1 µM (ErbB4(h); 100 nM): -1%
inhibition at 1 µM (ErbB4(h); 1000 nM): 28%
inhibition at 0.01 µM (IRR(h); 10 nM): -5%
inhibition at 0.1 µM (IRR(h); 100 nM): 5%
inhibition at 1 µM (IRR(h); 1000 nM): 1%
inhibition at 0.01 µM (PKCι(h); 10 nM): -1%
inhibition at 0.1 µM (PKCι(h); 100 nM): 0%
inhibition at 1 µM (PKCι(h); 1000 nM): -1%
inhibition at 0.01 µM (Tie2 (h); 10 nM): 19%
inhibition at 0.1 µM (Tie2 (h); 100 nM): 64%
inhibition at 1 µM (Tie2 (h); 1000 nM): 95%
inhibition at 0.01 µM (WNK2(h); 10 nM): 0%
inhibition at 0.1 µM (WNK2(h); 100 nM): -1%
inhibition at 1 µM (WNK2(h); 1000 nM): 22%
IC50 (FGFR4): 51.4 nM
IC50 (CSF-1R): 3.8 nM
IC50 [1]: > 1000 nM
IC50 (BMDM (CSF-2)): > 1000 nM

— article PMC6704710, “Preclinical evaluation of 3D185, a novel potent inhibitor of FGFR1/2/3 and CSF-1R, in FGFR-dependent and macrophage-dominant cancer models” (Journal of Experimental & Clinical Cancer Research : CR, 2019)
